Reference: patent US7985072B2, “Method and apparatus for tooth rejuvenation and hard tissue modification” (Rejuvedent LLC, priority 2005, dated 2011)

Experiments:
[1] = system: maxillary right central incisor of a volunteer; assay: Example 2: at-home tooth whitening treatment; details: for Normalized optical coefficient of reflection: before treatment 1
[2] = Six-hour exposure of extracted teeth to gel or citric acid; details: +24° C.
Excerpt: Control of etching using highly concentrated edible acid can be achieved by using different additives. The interaction between acid and hard tissue leads to a dissolution of mineral components and modification of organic components. Three types of dissolution are known: Type I, where enamel rods are removed preferentially, Type II, where the organic matrix is removed preferentially, and Type III, where both Type I and Type II dissolution take place. […] The present invention, proposes to control the etching process, using edible acid with a special additive. One of control mechanisms involves additives, including, but not limited to, the ions of Ca Cr, Ba Cd, Mg, P, SiF, and their compounds, such as PO4. Other non-organic or organic additives may also be used. Additions of such ion combinations may slow the dissolution of the inter-prismatic regions or may provide for re-crystallization of hydroxyapatite crystallites, or the building of new crystallites of fluroapatite. The use of such additives can be effective in the control of tooth etching, or in the preparation of the tooth surface for the application of a protective or cosmetic coating, or for the thermal re-crystallization of the tooth surface.
Extracted teeth with healthy enamel were used in the experiment. One half of enamel surface of each tooth was covered with a protective cover (“control side”). The other side (“treatment side”) was left unprotected. […]

[3] = system: premolar teeth of a subject; assay: Example 1: in-office tooth whitening treatment
[4] = 180-minute exposure of tooth halves to citric acid solution or gel, then methylene blue; details: pH=1.5, +20° C., 180 minutes
Method: Exposure in both cases was for 180 minutes and the tooth was then washed in distilled water. […] The tooth was then exposed to an aqueous solution of methylene blue.

[5] = Comparison of edible acids as bleaching agents for removal of stains in enamel; details: low pH (<2.5), intact enamel
Method: The ability of an aqueous acidic solution to deconstruct and dissolve both organic and inorganic components depends on the period of time, pH, concentration, and temperature at which the process occurs. The color of the enamel after stain removal and bleaching is determined by how closely the structure after etching matches the natural structure and how well light is scattered from the surface of the tooth. Remineralization is however, a slow process, so caution in carrying out the procedure is recommended, and it is desirable to protect the new surface with a hard material. To achieve this, the present invention proposes the use of a high concentration of acid to minimize the time of treatment. For a high concentration of acid to be used safely within the oral cavity, two fundamental safety concerns need to be addressed: firstly toxicity and secondly soft tissue damage. To completely eliminate the toxicity problem, especially for home use, we propose the use of an edible acid which is non-toxic when ingested. The volume of acid for any application in the present invention is limited to several cubic centimeters. After dissolution in saliva the concentration of the acid ingested will drop, and the pH will increase, which is typical for foodstuffs. A typical pH for food acids is 2.5 or more. We have studied the effect of a low pH (<2.5) edible acid on intact enamel. […]

dentinal hypersensitivity and change in gingival tissue ([1]; after treatment or during review appointments): No dentinal hypersensitivity
pain or discomfort throughout treatment ([1]; daily 2 minutes for three weeks): did not report any pain or discomfort
detrimental changes in soft tissues or enamel (post-treatment caries) ([1]; four month review visit): no detrimental changes
pain or discomfort throughout the treatment ([3]; pH=1.5, average +50° C., 10 minutes): did not report any pain or discomfort
SMILES: O=C(O)CC(O)(CC(=O)O)C(=O)O [citric acid]
Normalized optical coefficient of reflection ([1]; 1 months after treatment): 1.3 a.u.
Normalized optical coefficient of reflection ([1]; 4 months after treatment): 1.15 a.u.
Normalized optical coefficient of reflection ([1]; after 3 weeks of daily treatment (pH=1.5, room temperature, 2 minutes)): 1.34 a.u.
change in enamel gloss and reflection ([1]; after three-week treatment): No visible change in enamel gloss and reflection
improvement in tooth whitening (coefficient of reflection for white light) versus original color ([1]; after three-week treatment): 35%
improvement compared with original coefficient of reflection ([1]; four months after treatment): approximately 15%
whitening effect exceeding the original ([1]; one month after treatment): 33%
hardness of treated surface (dental probe / versus control side) [2]: easily damaged by scratching with a dental probe
predominant etching pattern [2]: Type I etching
specular reflection property of tooth surface [2]: completely lost its specular reflection property
whitening effect of treated sides [2]: comparable
change in gingival tissue and hypersensitivity ([3]; after treatment or during follow up appointments): No change in gingival tissue and no hypersensitivity
gloss of treatment side versus control side ([3]; immediately after treatment): less glossy than the control side
coloration by aqueous methylene blue after exposure [4]: colored by methylene blue
type of enamel etching [4]: Type I etching
whitening effect [4]: strong whitening effect
effectiveness among edible acids (lactic, malic, tartaric, oxalic acid) [5]: most effective
